In patent publication US20050245466A1, “Use of topoisomerase inhibitors and heat shock protein 90 inhibitors for use in chemotherapy” (THE UNIVERSITY OF LIVERPOOL, priority 2002, published 2005):

How the values were obtained:
[1] = MTD stated with the xenograft dosing; conditions: CD1 Nude, mouse, in vivo; mice
Description: Treatment with test agents was initiated when the mean individual tumour volume exceeded 1,000 mm^3. The mice were dosed at day 11 and day 22—([…] 10 mg/kg, VePesid 5 mg/kg, MTD […] 22 mg/kg (a non toxic form of 17AAG which can be tolerated at much higher doses) MTD VePesid 70 mg/kg.

E.coli MC4100 = experiment: Agar sensitivity plates, parental strain; format: cell-based; conditions: for zone of inhibition: parental strain MC4100
Description: (§1) 200 μl of an overnight culture of E.coli strains was spread over the surface of a LB plate. The plates were incubated for three hours at 37° C., and the discs (50 μl of drug) placed onto the plates that were then incubated at 37° C. overnight.
(§2) The plates were photographed the following day with Fluor-S™ Quantity 1 program and the results are illustrated in FIG. 18.
(§3) The inhibition of bacterial cell growth was assessed by examining the zones of inhibition around each disc containing the topo II inhibitor.

E.coli JGT11 (htpG null) = experiment: Agar sensitivity plates, htpG null mutant; format: cell-based
Description: as §1, §2, §3

HtpG = HtpG (Escherichia coli, UniProt P0A6Z3); conditions: in vitro; cited from earlier work
HtpG, sequence (P0A6Z3 whole entry): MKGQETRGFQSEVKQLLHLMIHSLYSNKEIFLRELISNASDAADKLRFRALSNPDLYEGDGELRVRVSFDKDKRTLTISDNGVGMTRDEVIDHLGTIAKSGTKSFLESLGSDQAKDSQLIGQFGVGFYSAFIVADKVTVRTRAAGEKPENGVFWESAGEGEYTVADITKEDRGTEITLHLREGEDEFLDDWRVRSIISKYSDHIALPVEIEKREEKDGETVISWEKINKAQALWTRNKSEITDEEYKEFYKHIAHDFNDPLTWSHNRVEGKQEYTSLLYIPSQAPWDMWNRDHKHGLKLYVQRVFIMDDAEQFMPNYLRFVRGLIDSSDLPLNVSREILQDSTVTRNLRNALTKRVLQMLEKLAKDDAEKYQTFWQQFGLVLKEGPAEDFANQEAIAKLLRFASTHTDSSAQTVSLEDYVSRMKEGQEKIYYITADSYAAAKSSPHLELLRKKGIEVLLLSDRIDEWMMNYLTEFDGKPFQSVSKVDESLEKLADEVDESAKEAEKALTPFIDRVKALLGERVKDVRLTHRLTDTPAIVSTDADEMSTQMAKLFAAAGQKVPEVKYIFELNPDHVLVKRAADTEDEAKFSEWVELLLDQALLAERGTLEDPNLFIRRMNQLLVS

Structure (SMILES)	MTD [1]	inhibition of growth (zones of inhibition) (E.coli MC4100; MC4100, discs in the range of 0.6-0.01 μM)	zone of inhibition (E.coli MC4100; 0.025 μM)	zone of inhibition (E.coli MC4100; 0.1 μM)	effect on growth versus parental strain (FIG. 18) (E.coli JGT11 (htpG null); JGT11, even at concentrations as low as 0.01 μM)	inhibition of growth (zones of inhibition) versus MC4100 (E.coli JGT11 (htpG null); htpG null mutant, discs in the range of 0.6-0.01 μM)	activity of HtpG (HtpG)
COc1cc([C@@H]2c3cc4c(cc3[C@@H](O[C@@H]3O[C@@H]5CO[C@@H](C)O[C@H]5[C@H](O)[C@H]3O)[C@H]3COC(=O)[C@H]23)OCO4)cc(OC)c1O [VePesid, Etoposide]	70 mg/kg	–	–	–	–	–	–
O=C(O)c1cn(C2CC2)c2cc(N3CCNCC3)c(F)cc2c1=O [Ciprofloxacin]	–	some inhibition of growth	no zone of inhibition	reduced zone of inhibition	significantly greater effect	increased inhibition	–
COC1=C2C[C@@H](C)C[C@H](OC)[C@H](O)[C@@H](C)/C=C(\C)[C@H](OC(N)=O)[C@@H](OC)/C=C\C=C(/C)C(=O)NC(=CC1=O)C2=O [Geldanamycin]	22 mg/kg	–	–	–	–	–	inhibits
